Assay results taken from patent US5043332A, “Novel 11β-substituted -19-nor-steriods” (priority 1981, dated 1991).

What was measured:
[1] = target: T1, Androgen receptor of prostate of rats (Rattus norvegicus, UniProt P15207); experiment: Androgen receptor binding (displacement of tritiated product P)
T1 construct: The prostates were removed, weighed and homogenized at 0° C; from tissue; host or cells: rat prostate, 105,000 g supernatant (castrated male Sprague-Dawley rats)
T1 sequence (P15207 1-902): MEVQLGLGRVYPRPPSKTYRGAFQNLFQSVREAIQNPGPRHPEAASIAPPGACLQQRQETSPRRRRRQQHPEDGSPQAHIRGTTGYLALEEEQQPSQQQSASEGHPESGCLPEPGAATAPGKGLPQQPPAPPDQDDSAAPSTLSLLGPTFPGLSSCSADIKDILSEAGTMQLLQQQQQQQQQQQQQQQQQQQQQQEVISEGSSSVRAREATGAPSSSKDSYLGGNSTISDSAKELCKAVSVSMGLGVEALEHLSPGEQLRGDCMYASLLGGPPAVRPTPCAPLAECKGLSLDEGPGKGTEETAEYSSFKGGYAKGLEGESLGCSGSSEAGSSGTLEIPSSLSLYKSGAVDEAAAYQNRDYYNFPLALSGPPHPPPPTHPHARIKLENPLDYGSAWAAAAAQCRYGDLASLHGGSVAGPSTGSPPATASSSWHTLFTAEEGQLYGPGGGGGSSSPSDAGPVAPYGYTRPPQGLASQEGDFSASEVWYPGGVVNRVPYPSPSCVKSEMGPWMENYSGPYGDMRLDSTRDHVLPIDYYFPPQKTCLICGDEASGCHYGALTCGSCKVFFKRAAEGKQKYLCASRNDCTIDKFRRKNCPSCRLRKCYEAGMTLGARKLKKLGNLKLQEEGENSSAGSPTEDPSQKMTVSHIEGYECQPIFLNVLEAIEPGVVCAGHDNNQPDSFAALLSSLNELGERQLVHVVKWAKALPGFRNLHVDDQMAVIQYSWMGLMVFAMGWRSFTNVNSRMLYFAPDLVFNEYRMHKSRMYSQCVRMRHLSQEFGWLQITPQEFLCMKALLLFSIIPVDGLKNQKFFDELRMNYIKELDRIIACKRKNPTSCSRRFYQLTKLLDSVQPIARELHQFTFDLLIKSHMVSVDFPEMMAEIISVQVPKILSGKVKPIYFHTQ
Description: B. Androgen receptor of prostate of rats
Male Sprague-Dawley EPOS rats weighing of 160 to 200 g were castrated and 24 hours later, the animals were killed. The prostates were removed, weighed and homogenized at 0° C. with a polytetrafluoroethylene-glass Potter with a buffered TS solution (Tris, 10 mM, 0.25M Saccharose, HCl-pH of 7.4) using 1 g of tissue per 5 ml of TS. The homogenate was then ultracentrifuged at 105,000 g for 60 […] (T) of product P or 17α-methyl-Δ^4,9,11 -estratriene-17β-ol-3-one in the presence of increasing concentration (0-1,000×10^-9 M) of either cold P, cold testosterone or the test compound. The concentration of tied tritiated (B) was measured for each incubate by the technique of adsorption on carbon-dextran.
(§1) The calculation of the relative affinity of […] (ARL) was identical for all of the above receptor tests. One traced the following two curves: the percentage of tied tritiated hormone B/T as a function of the logarithm of the cold hormone concentration and B/T as a function of the logarithm of the concentration of the cold test product. One determined the line of the equation. [formula]
(§2) The intersection of the I50 line and the curves permits one to determine the concentrations of the cold hormone of the reference (CH) and the cold test compound (CX) which inhibit by 50% the tieing of tritiated hormone with the receptor. The relative affinity of tieing (ARL) of the test product was determined by the equation: [formula]

[2] = target: T2, Estrogen receptor of uterus of mice (Mus musculus, UniProt P19785); experiment: Estrogen receptor binding (displacement of tritiated estradiol); conditions: for agonist or antagonistic activity to estrogens: concluded from receptor affinity
T2 construct: the uterus were removed and homogenized at 0° C; from tissue; host or cells: mouse uterus, 105,000 g supernatant (immature females 18 to 21 days old)
T2 sequence (P19785 1-599): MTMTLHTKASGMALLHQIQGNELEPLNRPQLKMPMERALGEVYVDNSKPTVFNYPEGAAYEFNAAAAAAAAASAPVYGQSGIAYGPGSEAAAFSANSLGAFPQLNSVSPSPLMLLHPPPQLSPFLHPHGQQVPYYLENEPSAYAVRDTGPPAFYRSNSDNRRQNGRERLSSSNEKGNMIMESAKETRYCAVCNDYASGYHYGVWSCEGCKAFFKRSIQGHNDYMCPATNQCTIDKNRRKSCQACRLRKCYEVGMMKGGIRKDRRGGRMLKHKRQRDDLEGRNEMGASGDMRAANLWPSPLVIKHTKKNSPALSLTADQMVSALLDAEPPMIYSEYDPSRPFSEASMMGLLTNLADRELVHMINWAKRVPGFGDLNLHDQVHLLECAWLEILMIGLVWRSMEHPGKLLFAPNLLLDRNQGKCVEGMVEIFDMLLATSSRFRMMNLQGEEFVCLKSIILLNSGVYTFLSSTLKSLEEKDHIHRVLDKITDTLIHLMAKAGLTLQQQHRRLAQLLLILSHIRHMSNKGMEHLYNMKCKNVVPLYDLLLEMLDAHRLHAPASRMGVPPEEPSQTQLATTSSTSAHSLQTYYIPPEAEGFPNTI
Description: E. Estrogen receptor of uterus of mice
Immature female mice 18 to 21 days old were killed and the uterus were removed and homogenized at 0° C. with a polytetrafluoroethylene-glass Potter in a buffered TS solution consisting of 10 mM, Tris, 0125M Saccharose, HCl for a pH of 7.4 at a rate of 1 g of tissue per 25 ml of TS. The homogenate was then ultracentrigued at 105,000 g for 90 minutes at 0° C. and aliquoits of the resulting […] were incubated at 0° C. for a time (t) with a constant concentration (T) of tritiated estradiol in the presence of increasing concentrations (0 to 1000×10^-9 M) of either cold estradiol or cold test compound. The concentration of tied tritiated estradiol (B) was measured for each incubate by the technique of adsorption on carbon-dextran.
as §1, §2

[3] = target: T3, Gluocorticoid receptor of thymus of rats (Rattus norvegicus, UniProt P06536); experiment: Glucocorticoid receptor binding (displacement of tritiated dexamethasone); conditions: incubation 4 H at 0° C.
T3 construct: The thymus were removed and homogenized at 0° C; from tissue; host or cells: rat thymus, 105,000 g supernatant (adrenalectomized male Sprague-Dawley rats)
T3 sequence (P06536 1-795): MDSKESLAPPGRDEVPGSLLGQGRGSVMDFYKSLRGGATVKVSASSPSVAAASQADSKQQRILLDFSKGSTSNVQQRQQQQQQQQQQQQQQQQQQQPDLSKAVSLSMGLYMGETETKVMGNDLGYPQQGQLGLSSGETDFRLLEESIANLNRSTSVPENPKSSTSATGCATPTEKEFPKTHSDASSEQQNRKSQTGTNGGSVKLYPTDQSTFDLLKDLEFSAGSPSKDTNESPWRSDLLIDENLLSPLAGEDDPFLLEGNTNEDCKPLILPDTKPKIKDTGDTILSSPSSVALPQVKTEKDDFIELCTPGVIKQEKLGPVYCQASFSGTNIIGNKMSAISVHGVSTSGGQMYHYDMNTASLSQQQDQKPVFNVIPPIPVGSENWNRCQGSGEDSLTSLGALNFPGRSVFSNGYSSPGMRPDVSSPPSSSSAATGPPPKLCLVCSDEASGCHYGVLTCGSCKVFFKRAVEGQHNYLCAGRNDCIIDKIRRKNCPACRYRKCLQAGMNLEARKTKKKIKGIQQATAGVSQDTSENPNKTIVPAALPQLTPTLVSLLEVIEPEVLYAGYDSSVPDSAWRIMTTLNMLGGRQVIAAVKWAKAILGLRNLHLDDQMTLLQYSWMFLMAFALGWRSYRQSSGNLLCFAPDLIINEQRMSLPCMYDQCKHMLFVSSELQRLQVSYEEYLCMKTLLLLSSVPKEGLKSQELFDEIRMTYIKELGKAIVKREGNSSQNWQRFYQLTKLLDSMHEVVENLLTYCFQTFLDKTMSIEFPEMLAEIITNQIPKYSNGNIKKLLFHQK
Description: D. Gluocorticoid receptor of thymus of rats
Male Sprague-Dawley EPOS rats weighing 160 to 200 g were surrenalectomized and the animals were killed 4 to 8 days later. The thymus were removed and homogenized at 0° C. in a buffered TS solution of 10 mM, Tris, 0.25M of Saccharose, 2 mM of dithiothreitol HCl for a pH of 7.4 using a polytetrafluoroethylene-glass Potter at a rate of 1 g of tissue per 10 ml of TS. […] The concentration of tied tritiated dexamethasone (B) was measured for each incubate by the adsorption on carbon-dextran technique.
as §1, §2

[4] = tested on: uterine endometrium; experiment: Progestomimetic activity, oral, change in uterine endometrium (McPhail); assay type: in vivo, immature female rabbits; conditions: progesterone 0.2 mg/kg subcutaneously
Description: (§3) IV. Progestomimetic and Anti-progestomimetic Activity
(§4) a) Groups of immature female rabbits weighing about 1 kg had administered to them subcutaneously from day 1 to day 5, 5 μg of estradiol. The product tested was afterward administered orally from day 8 to day 11 in a volume of 0.5 cm^3 of water containing 0.5% of carboxymethyl cellulose and 0.2% of Tween. On day 12, the rabbits were sacrificed, their uteruses were retained and fixed in Bouin's solution and histologically studied.
(§5) The changes in the uterine endometrium were noted according to the method of McPhail.

[5] = tested on: uterine endometrium; experiment: Anti-progestomimetic activity versus progesterone, intrauterine, change in uterine endometrium (McPhail); assay type: in vivo, immature female rabbits; conditions: progesterone alone 10 μg/rabbit, method of McPhail
Description: Groups of three immature female rabbits weighing about 1 kg were topically treated on the dorsal skin with 25 μg of estradiol in 10 μl of ethanol on day 1. On day 4 the product to be tested dissolved in 0.1 ml, of sesame oil containing 5% benzyl alcohol was introduced into a part of the uterus isolated between two ligatures. On the sixth day the animals were sacrificed, their uteruses retained and fixed in Bouin's solution for histological examination. Changes in the uterine endometrium were noted after the method of McPhail.

[6] = tested on: uterine endometrium; experiment: Anti-progestomimetic activity versus progesterone, oral, change in uterine endometrium (McPhail); assay type: in vivo, immature female rabbits; conditions: progesterone 0.2 mg/kg subcutaneously, alone
Description: as §3, §4, §5

SMILES	relative affinity of tieing (ARL), Androgen ([1]; incubation 1/2H at 0° C.)	relative affinity of tieing (ARL), Androgen ([1]; incubation 24 H at 0° C.)	agonist or antagonistic activity to estrogens [2]	relative affinity of tieing (ARL), Estrogen ([2]; incubation 2 H at 0° C.)	relative affinity of tieing (ARL), Estrogen ([2]; incubation 5 H (25° C.))	relative affinity of tieing (ARL), Glucocorticoid [3]	CHANGE IN THE ENDOMETRIUM [4]	CHANGE IN THE ENDOMETRIUM [5]	CHANGE IN THE ENDOMETRIUM [6]
CN(C)CCOc1ccc([C@H]2C[C@]3(C)[C@@H](O)CC[C@H]3[C@@H]3CCc4cc(O)ccc4[C@H]32)cc1 [Example 13, 11β-[4-(2-dimethylaminoethoxy)-phenyl]-Δ^1,3,5(10) -estratriene-3,17β-diol]	5	6	present an agonist or antagonistic activity to estrogens	78	239	3,9	–	–	–
CN(C)CCOc1ccc([C@H]2C[C@]3(C)[C@@H](O)CC[C@H]3[C@@H]3CCc4ccccc4[C@H]32)cc1 [Example 14, 11β-[4-(2-dimethylaminoethoxy)-phenyl]-Δ^1,3,5(10) -estratriene-17β-ol]	10,6	0,5	present an agonist or antagonistic activity to estrogens	4,1	1,4	0,4	–	–	–
CN(C)CCOc1ccc2c(c1)CC[C@@H]1[C@@H]2[C@@H](c2ccccc2)C[C@]2(C)[C@@H](O)CC[C@@H]12 [Example 15, 3-(2-dimethylamino-ethoxy)-11β-phenyl-Δ^1,3,5(10) -estratriene-17β-ol]	1,3	0,2	–	0,1	0,1	2	–	–	–
CC(=O)[C@H]1CC[C@H]2[C@@H]3CCC4=CC(=O)CC[C@]4(C)[C@H]3CC[C@]12C [Progesterone, progesterone, reference compound]	–	–	–	–	–	–	3.2 McPHAIL UNTS	2.7	3.0 McPHAIL UNTS
